# Results taken from US10973912B2, “Treatment for myopathy” (Children's Medical Center Corporation, priority 2015, dated 2021).
# System: ryr1b skeletal muscles
# Test: Tetanic force per cross-sectional area in larvae at 5 dpf
# Assay type: in vivo, zebrafish (Danio rerio)
# Protocol: Tetanic forces were measured following stimulation with 9 biphasic, 200 μs square-wave pulses at 300 Hz (WT-DMSO: 45.6±4.2 kPa, n=5; WT-NIF: 52.8±4.1 kPa, n=5; ryr1b-DMSO: 11.4±1.3 kPa, n=7; ryr1b-NIF: 25.4±4.0 kPa, n=7). Significance was determined by a one-way ANOVA (F=29.61, P<0.0001), followed by pairwise Tukey's HSD post hoc tests. […] Non-linear regression data of curves were not statistically different, as determined by an extra sum-of-squares F test (P=1.0).
# Ryr1b mutants display weaker muscle contractions than wild-type clutchmates as early as 2 dpf^30. To investigate whether […] affects contractile strength in zebrafish, ryr1b mutants and unaffected controls were treated with the compound for several days. At 5 dpf, electrophysiological studies were performed with the help of Dr. Jeffrey Widrick.
smiles,measurement,setting,value
O=C(N/N=C/c1ccc([N+](=O)[O-])o1)c1ccc(O)cc1 [Nifuroxazide],tetanic forces in treated mutants,,restored to wild-type levels
same,"tetanic force per cross-sectional area, ryr1b mutants","ryr1b, n=7, 9 biphasic 200 μs pulses at 300 Hz, ryr1b-DMSO 11.4±1.3, WT-DMSO 45.6±4.2",25.4±4.0 kPa
